Measurements taken from paper PMC11157491, “Novel Alaninamide Derivatives with Drug-like Potential for Development as Antiseizure and Antinociceptive Therapies—In Vitro and In Vivo Characterization” (ACS Chemical Neuroscience, 2024).

Assays:
mice [1] = test: Timed ivPTZ seizure threshold test; format: in vivo; details: 50 mg/kg i.p.
Description: The timed intravenous (iv) PTZ-induced seizure test was used to characterize the acute effect of compounds 26 and 28 on the thresholds for myoclonic, clonic, and tonic seizure in mice (Figure 2). It is noteworthy that the ivPTZ seizure test is a very sensitive method for determining the compounds’ effects on seizure threshold in rodents.[35] […] In the ivPTZ seizure test, bilateral forelimb tonic extension is usually quickly followed by hindlimb tonic extension and death due to respiratory arrest. […] In mice with no forelimb tonus, PTZ infusion was stopped after 180 s and the threshold dose of PTZ (in mg/kg) was calculated in those mice taking 180 s as infusion duration.
Figure 2 Acute effects of compounds 26 (A) and 28 (B) on seizure thresholds in the timed ivPTZ seizure test in mice. Both compounds were administered i.p. at a dose of 50 mg/kg, 30 min before the test. Control animals received vehicle. Data are presented as means (mg/kg PTZ) ± SEM (n = 9–13 animals). The statistical significance was evaluated by a Student’s t-test: *p < 0.05, **p < 0.01, ***p < 0.001, and ****p < 0.0001, as compared to the vehicle-treated group (GraphPad Prism 8).
In studies assessing the acute effect of compounds 26 and 28 on the ivPTZ seizure threshold and neuromuscular strength, the compounds were suspended in a 1% solution of Tween 80 and administered i.p., at a dose of 50 mg/kg of body weight, 30 min before the tests. The experimental procedures of the timed ivPTZ test and the grip strength test were described in detail elsewhere.[64]
Data from the ivPTZ test and the grip strength test were analyzed using Student’s t-test.

[2] = HepG2 cell viability (hepatotoxicity); format: cell-based, human; details: human, HepG2 hepatoma cells; at 1.56 μM, 48 h; read-out: HepG2 viability (% of control ± SD)
Experimental: (§1) The in vitro safety tests were performed with the use of a hepatoma HepG2 cell line to estimate the hepatotoxic potential of the tested compounds.

HepG2 cell line = test: HepG2 cell viability (hepatotoxicity); format: cell-based, human; details: for cell survival: HepG2, 100 μM; for concentration from which a statistically significant decrease of cell viability was observed: HepG2, 48 h
Experimental: as §1

CYP2D6 = CYP2D6 (Homo sapiens, UniProt P10635); details: 1 μM
Sequence of CYP2D6 (P10635 whole entry): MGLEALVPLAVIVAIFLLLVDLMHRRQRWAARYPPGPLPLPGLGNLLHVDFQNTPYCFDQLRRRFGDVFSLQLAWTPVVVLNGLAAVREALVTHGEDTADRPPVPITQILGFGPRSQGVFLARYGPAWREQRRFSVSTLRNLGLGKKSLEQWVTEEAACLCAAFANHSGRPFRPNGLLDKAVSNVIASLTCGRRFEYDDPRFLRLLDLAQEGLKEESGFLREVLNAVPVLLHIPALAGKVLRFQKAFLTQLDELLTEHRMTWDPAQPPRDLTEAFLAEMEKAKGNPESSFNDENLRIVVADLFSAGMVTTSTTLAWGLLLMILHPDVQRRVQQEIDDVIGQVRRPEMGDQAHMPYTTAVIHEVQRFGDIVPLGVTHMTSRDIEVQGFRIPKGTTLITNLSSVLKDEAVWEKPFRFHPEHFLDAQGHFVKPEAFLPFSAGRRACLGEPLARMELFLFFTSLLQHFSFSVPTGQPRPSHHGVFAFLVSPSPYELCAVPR

[3] = system: fast voltage-gated sodium channels in rat prefrontal cortex pyramidal neurons; test: Patch-clamp recording of fast sodium currents; format: cell-based; details: control = 1.0
Experimental: Due to the relatively high concentration of compounds used in the in vitro assays, as well as brain concentration of 28 (>10 μM after 25 mg/kg dose administration) determined in the pharmacokinetic studies (see Section 2.10), it seems unlikely that compounds described herein act by any of mechanisms tested in the aforementioned binding and functional studies. […] Thus, in further in vitro assays, 28 was also evaluated for its influence on fast voltage-gated sodium channels in rat prefrontal cortex pyramidal neurons using the patch-clamp technique (maximal currents were evoked by rectangular voltage steps to −10 mV).
The averaged, maximal normalized amplitudes of voltage-gated sodium currents were 1.0 in control, 0.72 ± 0.06 after application of 28, and 0.86 ± 0.05 after wash-out (control vs 28p < 0.05).
Patch-clamp studies in prefrontal cortex pyramidal neurons. The methodology of slice preparation, preparation of dispersed cortical neurons, and sodium current recording technique were the same as in our previous study.[75]

mice [4] = test: Capsaicin-induced pain; format: in vivo; details: Mus musculus, ip, 30 min before capsaicin
Experimental: The experimental groups consisted of 10 adult male Albino Swiss mice (CD-1, 18–25 g). Each animal was tested only once. Immediately after the assay, the animals were sacrificed by cervical dislocation. Behavioral measurements were observed by trained observers. The in vivo antinociceptive assays were in accordance with Polish regulations and the European Union Directive of 22 Sept 2010 (2010/63/EU). All procedures were carried out according to the rules of the International Council on Laboratory Animal Science (ICLAS) and were approved by the Local Ethics Committee in Cracow, Poland (104/2015, 279/2019, and 614/2022). The tested substances were suspended in a 1% aqueous solution of Tween 80 and were injected i.p. 30 min prior to the test. […] The in vivo procedure for the model of capsaicin-induced nociception was previously reported;[67] the animals were pretreated with vehicle (10 mL/kg, negative control), and the dose–response of investigated compounds was evaluated at 12.5, 25, and 50 mg/kg.
Data are presented as means ± standard error of the mean (SEM). […] Statistically significant differences between groups were calculated using one-way analysis of variance (ANOVA) and the post hoc Dunnett’s multiple comparison test or two-way analysis of variance (ANOVA). […]

GABAA transporter = test: GABA transporter binding (antagonist radioligand); details: 100 μM, rat cerebral cortex
Experimental: (§2) Binding/functional studies were carried out commercially in Eurofins Laboratories (Poitiers, France) and Eurofins Panlabs Discovery Services Taiwan, Ltd. (New Taipei City, Taiwan) using testing procedures that were reported previously (for details, see Table S2).
(§3) Table S2. Radioligand binding and functional assays. […]
GABA transporter (antagonist radioligand) […]
(§4) Potassium channel (hERG) […]
(§5) Assays were performed commercially in Eurofins Laboratories ( Poitiers, France) or Eurofins Panlabs Discovery Services
(§6) Taiwan, Ltd. (New Taipei City, Taiwan).

NMDA = NMDA binding (antagonist radioligand); details: 100 μM, rat cerebral cortex
Experimental: as §2
Table S2. Radioligand binding and functional assays.
NMDA (antagonist radioligand) […]
as §4, §5, §6

AMPA = AMPA binding (agonist radioligand); details: 100 μM, rat cerebral cortex
Experimental: as §2, §3
AMPA (agonist radioligand) […]
as §4, §5, §6

Row | SMILES | mice in which hindlimb tonus (only) was diminished/inhibited (mice [1]; 12 mice) | seizure threshold for generalized clonic seizure with loss of righting reflex (mice [1]; 30 min before ivPTZ) | seizure threshold for the first myoclonic twitch (mice [1]; 30 min before ivPTZ) | threshold for forelimb tonus (mice [1]; 30 min before ivPTZ) | viability at 48 h, 1.56 µM [2] | cell survival (HepG2 cell line) | concentration from which a statistically significant decrease of cell viability was observed (HepG2 cell line) | CYP2D6 activity (% of control ± SD) (CYP2D6) | averaged maximal normalized amplitude of voltage-gated sodium currents ([3]; 10 μM, after application) | averaged maximal normalized amplitude of voltage-gated sodium currents ([3]; after wash-out) | ED50 (mice [4]) | % inhibition of control specific binding (GABAA transporter) | mice in which both fore- and hindlimb tonus were completely inhibited (mice [1]; 12 mice) | % inhibition of control specific binding (NMDA) | % inhibition of control specific binding (AMPA)
1 | CC(=O)NC(C)C(=O)N1CCN(c2cccc(C(F)(F)F)c2)CC1 (stereo not shown) [Compound 26, N-(1-oxo-1-(4-(3-(Trifluoromethyl)phenyl)piperazin-1-yl)propan-2-yl)acetamide] | 10 out of 12 | significantly raised | significantly raised | did not significantly affect | 104 ± 8.8% | approximately 40% | 12.5 µM | 122.8 ± 11.7% |  |  |  |  |  |  | 
2 | CC(=O)NC(C)C(=O)N1CCN(c2cccc(OC(F)(F)F)c2)CC1 (stereo not shown) [Compound 28, N-(1-oxo-1-(4-(3-(Trifluoromethoxy)phenyl)piperazin-1-yl)propan-2-yl)acetamide] | 3 mice | significantly raised | significantly raised |  | 88.2 ± 16.1% | approximately 40% | 25 µM | 115.0 ± 4.5% | 0.72 ± 0.06 | 0.86 ± 0.05 | 27.5 mg/kg | 15.0% | 9 out of 12 | 5.0% | –21.0%
